Test results taken from US10858316B2, “Small molecule inhibitors of the MCL-1 oncoprotein and uses thereof” (University of Maryland, Baltimore, priority 2015, dated 2020).
Several values for one entry are separate records, joined by “and”; a condition that tells them apart may be missing. Equal values may be shown once. Read-outs that look alike come from different tables or passages of the source.

Columns and labels:
A375 melanoma cells = experiment: Cell proliferation / viability, CellTiter-Blue assay, A375; format: cell-based, human; settings: for IC50: cell titer blue assay, read-out: IC50 inhibition of cell proliferation, A375
Procedure: (§1) Without being limited to any one theory, the poor efficacy in cells may be attributed to the charged carboxylic acid of 3bl.
The moderate cellular activity of ±-2 may, for instance, be due to limited cell penetration owing to the charged carboxylic acid. Thus, the acetoxymethyl ester ±-12 (R1=CH2OCOCH3) was prepared as a neutral prodrug of ±-2.

Mcl-1 [1] = target: T1, Mcl-1 (Homo sapiens (Human), UniProt Q07820); experiment: Fluorescence polarization competition assay (FPCA), Mcl-1 / FITC-Bak BH3 peptide; format: binding; settings: for Ki: read-out: Mcl-1 Ki
Procedure, shortened: (§2)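 Purified Mcl-1 (affinity tag cleaved, size-exclusion polished) competed against FITC-labeled Bak-BH3 peptide, read by fluorescence polarization. IC50 from Hill-equation fit; Ki derived from IC50 by the Nikolovska-Coleska equation.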

Mcl-1 [2] = target: T1, Mcl-1; experiment: 2D 1H-15N HSQC NMR with 15N-labeled Mcl-1; format: binding; settings: 131 μM 15N-Mcl-1, 182 μM compound
Procedure: NMR spectra was collected at 25° C. with a Bruker AVANCE 800 NMR spectrometer (800.27 MHz for protons) equipped with pulsed-field gradients, four frequency channels, and triple resonance, z-axis gradient cryogenic probes. A one-second relaxation delay was used, and quadrature detection in the indirect dimensions was obtained with states-TPPI phase cycling; initial delays in the indirect dimensions were set to give zero- and first-order phase corrections of 90° and −180°, respectively. Data were processed using the processing program nmrPipe on Linux workstations. All proton chemical shifts are reported with respect to the H2O or HDO signal, taken to be 4.658 ppm relative to external TSP (0.0 ppm) at 37° C. The ^15N chemical shifts were indirectly referenced using the zero-point frequency at 37° C. of 0.10132905 for ^15N—^1H, as previously described.
All compounds used for NMR were initially suspended in 100% d6-DMSO. The NMR samples contained 131 μM ^15N-labeled Mcl-1, 182 μM compound, 20 mM HEPES, pH 6.8, 50 mM NaCl, 3 mM DTT, 20% D2O, and 5% D6-DMSO.

Bcl-xL = Bcl-xL (Homo sapiens (Human), UniProt Q07817); experiment: Fluorescence polarization competition assay, Bcl-xL; format: binding; settings: Ki from IC50 by Nikolovska-Coleska equation; NA = no activity; read-out: Bcl-xL Ki
Procedure: Fluorescence polarization experiments were conducted using a BMG PHERAstar FS multimode microplate reader equipped with two PMTs for simultaneous measurements of the perpendicular and parallel fluorescence emission. The assays were performed in black polypropylene 384-well microplate (Costar) with a final volume of 20 microliter. […] Regression analysis was carried out using Origin (OriginLab, Northampton, Mass.) to fit the data to the Hill equation (1) to determine the initial binding affinity (KD) and the IC50 in the FPCA. For the fluorescence polarization competition titrations, an equation derived by Nikolovska-Coleska et al. was used to calculate the Ki from the IC50 data.

SK-MEL-5 melanoma cells = experiment: Cell proliferation, cell titer blue assay, SK-MEL-5; format: cell-based
Description: as §1

Mcl-1 [3] = experiment: Fluorescence polarization competition assay (FPCA), Mcl-1 / FITC-Bak BH3 peptide; format: binding, human; settings: Mcl-1 over Bcl-xL
Procedure, shortened: as §2

HL-60 cell line = experiment: Cell viability of HL-60 cell line after treating with inhibitors for 24 hrs; format: cell-based, human
Description: The moderate cell grow inhibition ability for the two carboxylic acid ester prodrugs 20 and 21 could be attributed to the enzymatic hydrolysis that generated a free acid molecule (13ag) to function as an Mcl-1 inhibitor in the cells.

[4] = CellTiter-Blue assay, read-out: GI50, viability of A375 cells
[5] = FPCA with FITC-Bak, Ki from IC50 by Nikolovska-Coleska equation
[6] = read-out: IC50 inhibition of cell proliferation, SK-MEL-5
[7] = read-out: HL-60 IC50 0.5% FBS, 0.5% FBS
[8] = read-out: HL-60 IC50 10% FBS, 10% FBS

Sequence of Bcl-xL (Q07817 whole entry): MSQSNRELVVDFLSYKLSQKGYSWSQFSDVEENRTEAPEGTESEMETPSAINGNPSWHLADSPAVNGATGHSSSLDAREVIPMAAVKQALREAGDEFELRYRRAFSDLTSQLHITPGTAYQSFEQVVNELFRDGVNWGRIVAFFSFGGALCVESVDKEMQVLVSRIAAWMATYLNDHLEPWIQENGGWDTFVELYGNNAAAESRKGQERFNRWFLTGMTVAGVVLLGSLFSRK
T1 sequence (Q07820 172-327): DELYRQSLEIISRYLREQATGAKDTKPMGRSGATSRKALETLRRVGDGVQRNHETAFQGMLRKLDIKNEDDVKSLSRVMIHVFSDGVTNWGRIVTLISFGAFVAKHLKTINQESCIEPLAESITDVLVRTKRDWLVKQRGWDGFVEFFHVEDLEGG

| SMILES | Ki (Mcl-1 [1]; [5]) | Ki (Mcl-1 [1]; FPCA) | Ki (Bcl-xL) | IC50 (HL-60 cell line; [7]) | IC50 (HL-60 cell line; [8]) | further results |
| --- | --- | --- | --- | --- | --- | --- |
| Cc1cc(Oc2ccc(S(=O)(=O)N3CC(C(=O)O)Cc4ccccc43)cc2)cc(C)c1Cl (racemic) [±-2] | 0.12 ± 0.053 µM | 0.12 µM | – | – | – | GI50 (A375 melanoma cells; [4]): 50 µM; GI50 (A375 melanoma cells; read-out: GI50, viability of A375 melanoma cells): 50 µM; Mcl-1 backbone 1H-15N chemical shift perturbation on compound binding (Mcl-1 [2]): significant chemical shift changes |
| CC(=O)OCOC(=O)C1Cc2ccccc2N(S(=O)(=O)c2ccc(Oc3cc(C)c(Cl)c(C)c3)cc2)C1 (racemic) [±-12] | > 500 µM | – | – | – | – | GI50 (A375 melanoma cells; [4]): 73 µM; Ki (Mcl-1 [1]; FPC assay): > 500 µM |
| Cc1cc(Oc2ccc(S(=O)(=O)N(CC(C)C)c3ccc(C(=O)O)c(O)c3)cc2)cc(C)c1Cl [4jc117-5 13ak] | 0.778 ± 0.05 µM | 0.778 µM | 1.63 ± 0.177 µM | – | – | Mcl-1 backbone 1H-15N chemical shift perturbation on compound binding (Mcl-1 [2]): R263 and T266 were both perturbed |
| CC(C)CN(c1ccc(OC(C)C)cc1)S(=O)(=O)c1cc(C(=O)O)c(O)c2ccccc12 [Compound 3ba, 1-Hydroxy-4-(N-isobutyl-N-(4-isopropoxyphenyl)sulfamoyl)-2-naphthoic Acid] | 0.487 µM | – | 6.08 ± 0.81 µM | – | – | IC50 (A375 melanoma cells; Homo sapiens, A-375): 150 µM; Mcl-1 backbone 1H-15N chemical shift perturbation on compound binding (Mcl-1 [2]): perturbation of the chemical shifts |
| Cc1cc(Oc2ccc(N(Cc3ccccc3)S(=O)(=O)c3cc(C(=O)O)c(O)c4ccccc34)cc2)cc(C)c1Cl [Compound 3bl, 4-(N-Benzyl-N-(4-(4-chloro-3,5-dimethylphenoxy)phenyl)sulfamoyl)-1-hydroxy-2-naphthoic Acid] | – | 0.031 µM | 0.34 ± 0.13 µM | – | – | IC50 (A375 melanoma cells; Homo sapiens, A-375): 50 µM; IC50 (SK-MEL-5 melanoma cells; Homo sapiens, SK-MEL-5, read-out: IC50 inhibition of cell proliferation, SK-MEL-5): 90 µM |
| O=C(O)c1cc(S(=O)(=O)Nc2ccc(Br)cc2Br)c2ccccc2c1O [Compound 3o, 4-(N-(2,4-Dibromophenyl)sulfamoyl)-1-hydroxy-2-naphthoic Acid] | – | 0.42 µM | 2.31 ± 1.35 µM | – | – | Selectivity, Ki (Bcl-xL) divided by Ki (Mcl-1) (Mcl-1 [3]): 5.5 |
| O=C(O)c1cc(S(=O)(=O)Nc2cccc3ccccc23)c2ccccc2c1O [Compound 3p, 1-Hydroxy-4-(N-(naphthalen-1-yl)sulfamoyl)-2-naphthoic Acid] | 11.2 ± 2 µM | – | 110 ± 45 µM | – | – | Selectivity, Ki (Bcl-xL) divided by Ki (Mcl-1) (Mcl-1 [3]): 10 |
| O=C(O)c1cc(S(=O)(=O)Nc2ccc3ccccc3c2)c2ccccc2c1O [Compound 3q, 1-Hydroxy-4-(N-(naphthalen-2-yl)sulfamoyl)-2-naphthoic Acid] | 4.58 ± 1.56 µM | – | 68.5 ± 36.3 µM | – | – | Selectivity, Ki (Bcl-xL) divided by Ki (Mcl-1) (Mcl-1 [3]): 15 |
| O=C(O)c1cc(S(=O)(=O)Nc2ccccc2C(F)(F)F)c2ccccc2c1O [Compound 3u, 1-Hydroxy-4-(N-(2-(trifluoromethyl)phenyl)sulfamoyl)-2-naphthoic Acid] | 4.05 ± 2.11 µM | – | 19.3 ± 9 µM | – | – | Selectivity, Ki (Bcl-xL) divided by Ki (Mcl-1) (Mcl-1 [3]): 4.8 |
| COc1ccc(NS(=O)(=O)c2cc(C(=O)O)c(O)c3ccccc23)cc1 [Compound 3z, 1-Hydroxy-4-(N-(4-methoxyphenyl)sulfamoyl)-2-naphthoic Acid] | 11.9 ± 2.5 µM | – | 71.9 ± 21 µM | – | – | Selectivity, Ki (Bcl-xL) divided by Ki (Mcl-1) (Mcl-1 [3]): 6 |
| COC(=O)c1cc(S(=O)(=O)N(CC(C)C)c2ccc(OC(C)C)cc2)c2ccccc2c1O [Compound 13] | – | – | – | – | – | IC50 (A375 melanoma cells): ~300 µM; IC50 (SK-MEL-5 melanoma cells; [6]): ~300 µM; Binding affinity to Mcl-1 in vitro (Mcl-1 [1]; FPCA): no binding affinity |
| CC(=O)OCOC(=O)c1cc(S(=O)(=O)N(CC(C)C)c2ccc(OC(C)C)cc2)c2ccccc2c1O [Compound 14] | – | – | – | – | – | IC50 (A375 melanoma cells): 15 µM; IC50 (SK-MEL-5 melanoma cells; [6]): 15 µM; Binding affinity to Mcl-1 in vitro (Mcl-1 [1]; FPCA): no binding affinity |
| Cc1cc(Oc2ccc(S(=O)(=O)N(CC(C)C)c3ccc(O)c(C(=O)O)c3)cc2)cc(C)c1Cl [JY-5-304 18bd] | 0.586 ± 0.041 µM | 0.586 µM | 2.91 ± 0.191 µM | 9.82 µM | > 120 µM | – |
| CC(C)CN(c1ccc(C(=O)O)c(O)c1)S(=O)(=O)c1ccc(Oc2ccccc2)cc1 [LC-4-099 13ag] | 5.77 µM and 5.8 µM | – | 18 ± 4.6 µM | 18.5 µM | > 120 µM | – |
| Cc1cc(Oc2ccc(S(=O)(=O)N(Cc3ccccc3)c3ccc(C(=O)O)c(O)c3)cc2)cc(C)c1Cl [LC-4-118 13cc] | 0.659 µM and 0.629 µM | – | 1.67 ± 0.351 µM | < 7.5 µM | 53.2 µM | – |
| COC(=O)c1ccc(N(CC(C)C)S(=O)(=O)c2ccc(Oc3ccccc3)cc2)cc1O [LC-4-131 20] | > 500 µM | – | – | 68.1 µM | 76.4 µM | – |
| CC(=O)OCOC(=O)c1ccc(N(CC(C)C)S(=O)(=O)c2ccc(Oc3ccccc3)cc2)cc1O [LC-4-141 21] | – | – | – | 46.4 µM | > 120 µM | – |
| Cc1cc(Oc2ccc(S(=O)(=O)N(Cc3ccccc3)c3ccc(C(=O)NS(=O)(=O)c4ccc(NCC5CCOCC5)c([N+](=O)[O-])c4)c(O)c3)cc2)cc(C)c1Cl [LC-5-131 31] | 0.8 ± 0.07 µM | 0.8 µM | 1.61 ± 0.176 µM | 9.96 µM | > 120 µM | – |
| Cc1cc(CCCN(Cc2ccccc2)c2ccc(C(=O)O)c(O)c2)cc(C)c1Cl [LC-5-188 35] | 1.45 µM | – | 2.98 ± 0.406 µM | 7.36 µM | 88 µM | – |
